These results are taken from paper PMC11763059, “GENI as an AMPK Activator Binds α and γ Subunits and Improves the Memory Dysfunction of Alzheimer’s Disease Mouse Models via Autophagy and Neuroprotection” (Antioxidants, 2025).

Data set [1] is described as follows: Organ weights in the D-gal induced AD mice experiment. The settings on record: D-gal + DON 3 mg/kg, gavage 10 weeks, mean ± SEM, n 7.
Description: (§3) Each group comprised 10 mice. […] Dosing lasted for 10 weeks. […] The mice were sacrificed after 10 weeks of administration.
(§4) At the end of the animal experiment, the epididymis fat, heart, liver, spleen, and kidney of the mice were removed for weighing analysis.
Data set [2] in a line: Serum biochemical index of D-galactose mice. The note with it: D+DON 3 mg/kg, mean ± SEM, n 7.
Description: as §3, §4
Data set [3] relates to PC12 cells. In words: Western blot of LC3 II/LC3 I in the autophagy flow assay. The class given is cell-based. The note with it: 3-MA 5 mM. On the procedure: (§1) Western blot analysis for p-AMPK α, AMPK α, p-mTOR, mTOR, p-ULK1, ULK1, and LC3-I/II was conducted according to the information described in the materials and methods section of Supplementary Information.
1.3. Western blot analysis.
For PC12 cell samples, we seeded 2 × 10^6 PC12 cells in each 60 mm dish containing 5 mL of DMEM and incubated the dish for 24 h. For the dose-dependent experiment of GENI, GENI (1, 3 and 10 μM) was added to the dishes and incubated for a period of time (2 hours for p-AMPK α, AMPK α, 48 hours for p-mTOR, mTOR and p-ULK1, ULK1; 8 hours for LC3-I/II). Cells were then collected, lysed using RAPI lysis buffer and centrifuged. The supernatants of each group were used as protein samples. For the protein samples of autophagy flow assay, we seeded 2 × 10^6 PC12 cells in each 60 mm dish containing 5 mL of DMEM and incubated the dish for 24 h.
The GENI, rapamycin and inhibitors, such as chloroquine and 3-MA were added according to the method of autophagy flow assay. After treatment of 18 h, cells were then collected, lysed using RAPI lysis buffer and centrifuged. […] The protein concentration was measured with a BCA assay kit (Beijing Cowin Biotech Company, Beijing, China). […] Bands were quantitatively measured using ImageJ software (National Institutes of Health, Bethesda, MD, USA).
In general terms: In western blotting, separated proteins are transferred to a membrane and probed.

For data set [4], the system named is PC12 cells. In words: Autophagy flow assay (CYTO-ID) in PC12 cells. The class given is cell-based. The settings on record: 5 mM 3-MA + 10 μM GENI + 10 μM CQ. As for the experimental part:
The experiment was carried out according to the instructions of the CYTO-ID autophagy detection kit (Enzo Biochem, New York, NY, USA). In brief, we seeded 7.5 × 10^4 PC12 cells in each well of a 24-well plate using the cell slide method. The cells were incubated for 24 h at 37 °C in a 5% CO2 incubator. The experiment was divided into control (0.5% DMSO), positive control rapamycin (Rap 500 nM + chloroquine (CQ)), GENI treated-group (10 μM GENI + 10 μM CQ), 3-MA inhibitor group (5 mM 3-MA + 10 μM CQ) and GENI + 3MA group (5 mM 3-MA + 10 μM GENI + 10 μM CQ). The optimum concentration of 3MA inhibitor was referenced in the other report. At first, 0.5 mL of serum-free DMEM (plus 1% dual anti-penicillin–streptomycin) containing 3-MA (5 mM) was used to replace the medium in two groups as well as 0.5 mL of serum-free DMEM was added in the other groups, respectively. After treating for 6 h, 0.5 mL of DMEM containing DMSO (0.5%), Rap (500 nM) + CQ (10 μM), GENI (10 μM) + CQ (10 μM), CQ (10 μM), and GENI (10 μM) + CQ (10 μM) was added into the corresponding group, respectively. After 18 h, we removed the medium and washed cells twice with 1× assay buffer containing 5% FBS. We then added CYTO-ID Green detection reagent and Hocchst 33342 nuclear stain to the cells, which were incubated at 37 °C for 45 min. After three washes with 1× assay buffer, we fixed cells with 4% paraformaldehyde for 20 min. After three washes with 1× assay buffer, we observed the cells with an upright two-photon confocal microscope (Olympus FV1000BX-51, Tokyo, Japan).

The test system of a further data set is APP/PS1 mice. Details: method as in PMID 31837991. The settings on record: APP/PS1 mice ref 27; cited from earlier work.
Data set [5] deals with natural aging AD mice. In words: Behaviour tests in naturally aged mice with AD. In kind it is in vivo. As for the experimental part:
(§2) Each group had 10 mice. GENI was dissolved in ultrapure water and administered by gavage, whereas Dor was dissolved in normal saline. The pH was adjusted to pH 5 with 0.1 M hydrochloric acid to the clarified solution and administered by intraperitoneal injection. The dosing experiment also lasted 10 weeks. Animal behavioral experiments and sampling at the end of the animal experiment were performed as described above.
The Y-maze is mainly used to study the spatial working memory ability of rodents. The Y-maze consisted of three equal-length arms (50 cm × 18 cm × 35 cm), and the angle between each two arms was 120 degrees. The mice were placed at the end of any arm of the Y-maze and allowed to explore freely for 8 min. The behavioral changes including the total number of entries and alternation (successively entering all three arms of the Y-maze once in turn) were recorded. Percentage altercation = alternation/(entries-2) × 100%. The Y-maze could effectively reflect the ability of animals to recognize and remember novel environments.
NOR was used to detect memory in rodents. We prepared a 40 × 40 × 40 cm square box, camera equipment, and behavioral analysis software. We chose three objects A, B, and C, where objects A and B were exactly the same, and object C was very different from objects A and B. After the start of the experiment, the mice were allowed to acclimate freely in the experimental apparatus for 10 min. Objects A and B were placed into the box, and the mice were allowed to explore for 5 min. We then recorded the exploration time and times. After 1 h, A and C or B and C were placed into the box. After letting the mice explore for 5 min, we recorded the exploration time of the original object and the new object. Discrimination index = exploration time of new objects/total exploration time × 100%.
The MWM installation consisted of a circular pool (120 cm in diameter and 50 cm in height), camera equipment, and a computer analysis system. In the first stage, the platform position was fixed, and mice were placed into the pool from any three of the four origins on the pool facing away from the pool wall. The time when it took for the mouse to find the platform within 120 s, called escape latency, was recorded. The training period lasted 4 days. The escape latency of the mice was recorded daily, and the average value was used as an index to evaluate the ability of learning and memory. On the 5th day, the platform was evacuated by the experimenter. The mice were placed against the platform into the water from any water entry point, and they were allowed to swim freely for 60 s. We then recorded the number of times that they crossed the platform.

The subject of another data set is AMPK. Description: Inhibitor experiment with Dor in PC12 cells (Western blot). The class given is cell-based. The settings on record: Dor pre-treatment then 10 μM GENI 2 h. On the procedure:
Firstly, 2 × 10^6 cells were added to a 60 mm Petri dish containing 5 mL of DMEM and incubated for 24 h. Secondly, the C group, GENI group, Dor group, and GENI+ Dor group were established. The dishes containing the Dor group were pre-treated with 5 μM Dor for 2 h, and the remaining groups were balanced with DMSO. The group containing 10 μM GENI was added, and the remaining groups were balanced with DMSO. After incubation for 2 h, protein extraction was performed for the Western blot experiment.

Data set [6] relates to natural aging AD mice. In words: Immunohistochemistry and Western blot of brain in naturally aged AD mice. The class given is in vivo. The settings on record: Dor 2 mg/kg + GENI 25 mg/kg. On the procedure: as §2
Firstly, the three mice of each group were subjected to heart perfusion at the end of the animal experiment, and the whole brain was removed and placed in 15 mL of 4% paraformaldehyde and stored at 4 °C for 24 h. Secondly, we changed 4% paraformaldehyde into 15% sucrose solution and stored the solution at 4 °C for 24 h. We then changed the solution to 30% sucrose solution to dehydrate for 2 days. Thirdly, the mouse brain tissue was embedded in a cryo-embedding medium, and about 80 slices with a thickness of 20 μm were cut in the hippocampus using a cryostat (Thermal Fisher, Shanghai, China). The sections of mice in each group were immunohistochemically stained with primary antibodies, such as neuronal nuclear anti gen (NeuN), ionized calcium-binding adapter molecule 1 (Iba-1), inducible nitric oxide synthase (iNOS, pro-inflammatory factors), synaptophysin (Syp), and glial fibrillary acidic protein (GFAP), and secondary antibody. The product number and usage ratios of primary and secondary antibodies are detailed in Supplementary Table S4. Finally, the sections were observed under an upright two-photon confocal microscope (Olympus BX61, Tokyo, Japan) and recorded by a camera. The pictures were digitized with ImageJ software V1.8.0.112 (National Institutes of Health, Bethesda, MD, USA).
as §1
1.3. Western blot analysis. […]
The supernatants of each group were used as protein samples. For animal samples, an appropriate amount of tissue, such as cerebral cortex and hippocampus (50–100 mg), of each group was weighed, and we added lysis buffer with 1:9 ratios. After grinding and centrifuging, the supernatants of each group were used as protein samples. The protein concentration was measured with a BCA assay kit (Beijing Cowin Biotech Company, Beijing, China). Sodium dodecyl sulphate polyacrylamide gel electrophoresis (SDS-PAGE) was used to separate proteins (15 μg), which were transferred to PVDF membranes. The membrane was incubated with primary and secondary antibodies (Supplementary Table S5 for details). Antigens were visualised using a high-sensitivity chemiluminescence detection kit (Beijing Cowin Biotech Company, Beijing, China). Bands were quantitatively measured using ImageJ software (National Institutes of Health, Bethesda, MD, USA).

Regarding `COc1cc2c(cc1OC)C(=O)C(CC1CCN(Cc3ccccc3)CC1)C2` (stereo not shown) [DON, donepezil], in data set [1], the Fat weight was determined as 0.728 ± 0.302 g, the Heart weight worked out at 0.196 ± 0.048 g, the Kidney weight was 0.547 ± 0.034 g and the Spleen weight was 0.113 ± 0.015 g. The compound further returned an ALB in data set [2] of 24.0 ± 1.6 g/L.
As for `Cn1cnc(N)c2ncnc1-2` [3-MA, reference compound], in the data set with PC12 cells [3], the “conversion of LC3 I to LC3 II induced by GENI, effect of the inhibitor” value is “diminished”. In the data set with PC12 cells [4], the “autophagy induced by GENI, effect of the inhibitor” value is listed as “inhibited”.
As for `O=C(O)C1=CO[C@@H](O[C@@H]2O[C@H](CO)[C@@H](O)[C@H](O)[C@H]2O)[C@@H]2C(CO)=CC[C@H]12` [GPA, geniposidic acid], in the data set on APP/PS1 mice, the “Aβ deposition in brains” value is listed as “reduce”; the “spatial learning and memory abilities” value was “significantly improve”.
Consider `c1cc(-c2cnn3cc(-c4ccc(OCCN5CCCCC5)cc4)cnc23)ccn1` [Dor, dorsomorphin], for which, in the data set with natural aging AD mice [5] (Dor 2 mg/kg + GENI 25 mg/kg), the “GENI effects on escape latency and number of crossing platforms, effect of the AMPK inhibitor” value is “partially reduced”. Further, the “improvement in cognitive function by GENI in Y maze and NOR tests, effect of the AMPK inhibitor” value in the data set with natural aging AD mice [5] (Dor 2 mg/kg i.p. once every 2 days + GENI 25 mg/kg) is given as “significantly decreased”. Moreover, in the data set on AMPK, the “phosphorylation of AMPK, ULK1, and LC3 II after GENI treatment, effect of the AMPK inhibitor” value is “significantly decreased”. In the data set with natural aging AD mice [6], the “activation of the AMPK/mTOR/ULK1 signaling pathway by GENI in hippocampus and cortex, effect of the AMPK inhibitor” value is recorded as “suppressed”; the “anti-inflammation effects of GENI on activated microglia and astrocytes and iNOS expression, effect of the AMPK inhibitor” value is “significantly suppressed”; the “effects of GENI on APP, Tau, Aβ and p-Tau, effect of the AMPK inhibitor” value was “inhibited”; the “increase in neurons and synaptophysin expression in hippocampus and cortex by GENI, effect of the AMPK inhibitor” value is “significantly diminished”.
